{"source": "ChEMBL document CHEMBL5230150", "about": "“Antiviral fungal metabolites and some insights into their contribution to the current COVID-19 pandemic” (Bioorg Med Chem, 2021)", "key": {"Zika virus [1]": {"system": "Zika virus", "assay": "Antiviral activity against ZIKV Z16019 infected in A549 cells assessed as inhibition in viral replication at MOI of 1 incubated for 1 hr by plaque assay", "type": "functional, organism-based", "conditions": "Z16019, A549, 1 h"}, "Influenza A virus [2]": {"system": "Influenza A virus", "assay": "Antiviral activity against Influenza A virus H1N1 subtype infected in MDCK cells assessed as inhibition of viral replication incubated for 48 hrs by CPE inhibition assay", "type": "functional, organism-based"}, "Influenza A virus [3]": {"system": "Influenza A virus", "assay": "Antiviral activity against Influenza A virus H3N2 subtype infected in MDCK cells assessed as inhibition of viral replication incubated for 48 hrs by CPE inhibition assay", "type": "functional, organism-based"}, "Influenza A virus [4]": {"system": "Influenza A virus", "assay": "Antiviral activity against Influenza A virus A/Puerto Rico/8/34(H1N1) strain infected in MDCK cells assessed as inhibition of viral infection incubated for 60 mins by CPE inhibition assay", "type": "functional, organism-based", "conditions": "1 h"}, "Hepatitis C virus": {"system": "Hepatitis C virus", "assay": "Antiviral activity against HCV J8CC", "type": "functional, organism-based, Hepacivirus hominis"}, "dengue virus type 2 [5]": {"system": "dengue virus type 2", "assay": "Antiviral activity against DENV2 assessed as inhibition of viral replication by DENV RNA-dependent RNA polymerase assay", "type": "functional, organism-based"}, "dengue virus type 2 [6]": {"system": "dengue virus type 2", "assay": "Antiviral activity against DENV2 16681 infected in HEK293T/17 cells assessed as reduction in viral replication at MOI of 1 to 10 incubated for 24 hrs by standard plaque assay", "type": "functional, organism-based", "conditions": "Dengue virus, 16681, HEK293T/17, 24 h"}, "[7]": {"system": "Human immunodeficiency virus 1", "assay": "Antiviral activity against HIV-1 infected in SUP-T1 cells assessed as inhibition of viral replication at MOI of 1 treated for 48 hrs by luciferase assay", "type": "functional, organism-based", "conditions": "Human immunodeficiency virus 1, SUP-T1, 48 h"}, "Influenza A virus [8]": {"system": "Influenza A virus", "assay": "Antiviral activity against Influenza A virus A/Puerto Rico/8/34(H1N1) strain infected in MDCK cells assessed as inhibition of viral infection by CPE inhibition assay", "type": "functional, organism-based"}, "Zika virus [9]": {"system": "Zika virus", "assay": "Antiviral activity against ZIKV infected in A549 cells assessed as viral replication inhibition", "type": "functional, organism-based"}, "dengue virus type 2 [10]": {"system": "dengue virus type 2", "assay": "Antiviral activity against DENV2 00st-22A infected in Vero cells assessed as reduction in viral replication at MOI of 0.5 incubated for 48 hrs by focus-forming assay", "type": "functional, organism-based"}}, "note": "pEC50, pIC50: −log10 of the molar value. Square brackets hold non-standard residues; d marks the D form. Peptide text beside a SMILES is read from it. * marks the point of attachment. Pro(4R-Me) = C[C@H]1CN[C@H](C(=O)O)C1; Oleoyl = CCCCCCCC/C=C\\CCCCCCCC(=O)*; hSer = N[C@@H](CCO)C(=O)O", "data": [{"molecule": "O=C(C(=O)c1c[nH]c2ccccc12)c1c[nH]c2ccccc12", "values": [{"measurement": "pEC50", "setting": "Zika virus [1]", "result": 5.38}]}, {"molecule": "CC[C@H]1O[C@@H]2O[C@H](/C=C/C=C/C=C/c3oc(=O)cc(OC/C=C(\\C)C(=O)OC)c3C)[C@H](O)[C@]2(C)[C@@]1(C)O", "values": [{"measurement": "pEC50", "setting": "Influenza A virus [2]", "result": 5.46}, {"measurement": "pEC50", "setting": "Influenza A virus [3]", "result": 5.21}]}, {"molecule": "COC(=O)/C(C)=C/COc1cc(=O)oc(/C=C/C=C/C=C/[C@H]2O[C@H]3O[C@H](C)[C@](C)(O)[C@@]3(C)[C@H]2O)c1C", "values": [{"measurement": "pEC50", "setting": "Influenza A virus [3]", "result": 5.05}]}, {"molecule": "COc1cc(O)c2c(c1)C(=O)C1=C(C2=O)[C@H](O)[C@@H](O)[C@@](C)(O)C1", "values": [{"measurement": "IC50", "setting": "Influenza A virus [4]", "result": 8.35, "unit": "µg/mL"}]}, {"molecule": "CC[C@@H]1N[C@@H]2N(C1=O)c1ccccc1[C@@]2(O)C[C@@H]1C(=O)NC(=C(C)C)c2nc3ccccc3c(=O)n21", "values": [{"measurement": "pEC50", "setting": "Hepatitis C virus", "result": 3.89}]}, {"molecule": "CC(=O)OC/C=C(\\C)[C@@H]1C(C)=C[C@@H]2CC[C@H](O)[C@H](C)[C@H]2[C@@H]1/C=C/C=C/C(=O)O", "values": [{"measurement": "pIC50", "setting": "dengue virus type 2 [5]", "result": 4.87}]}, {"molecule": "C/C=C(\\C)[C@@H]1C(C)=C[C@@H]2CC(=O)C[C@H](C)[C@H]2[C@@H]1/C=C/C=C/C(=O)O", "values": [{"measurement": "pIC50", "setting": "dengue virus type 2 [5]", "result": 4.93}]}, {"molecule": "CC1(C)C(=O)N2c3ccccc3[C@@]3(C[C@H]4n5c(nc6ccccc6c5=O)C(=O)C(C)(C)[C@@]4(O)O3)[C@@H]2N1S(C)(=O)=O", "values": [{"measurement": "pEC50", "setting": "Hepatitis C virus", "result": 3.96}]}, {"molecule": "CC(C)[C@@H]1NC(=O)[C@@H](C[C@@]2(O)c3ccccc3N3C(=O)C(C)(C)N[C@@H]32)n2c1nc1ccccc1c2=O", "values": [{"measurement": "pEC50", "setting": "dengue virus type 2 [6]", "result": 5.33}]}, {"molecule": "CC[C@H](C)[C@@H](O)C(=O)[C@H]1C2=COC(C)=CC2=CC(=O)[C@@]1(C)O", "values": [{"measurement": "pIC50", "setting": "[7]", "result": 6.30}]}, {"molecule": "COc1cccc2oc3cc(C)c(O)c(CO)c3c(=O)c12", "values": [{"measurement": "pIC50", "setting": "Influenza A virus [8]", "result": 5.33}]}, {"molecule": "C=C(CC[C@@H](C)[C@H]1CC=C2C3=C(CC[C@@]21C)[C@@]1(C)CC[C@H](O)C[C@@H]1CC3=O)C(C)C", "values": [{"measurement": "pIC50", "setting": "[7]", "result": 5.46}]}, {"molecule": "COc1ccc2oc3cc(C)c(O)c(CO)c3c(=O)c2c1OC", "values": [{"measurement": "pIC50", "setting": "Influenza A virus [8]", "result": 5.66}]}, {"molecule": "C=C(C)C#CC1=C[C@@H]2O[C@@H](C(C)(C)O)C[C@]23O[C@@H]3[C@H]1O", "values": [{"measurement": "pIC50", "setting": "[7]", "result": 4.79}]}, {"molecule": "C[C@]1(O)CC2=C(C(=O)c3c(O)cc(O)cc3C2=O)[C@H](O)[C@H]1O", "values": [{"measurement": "IC50", "setting": "Influenza A virus [4]", "result": 2.59, "unit": "µg/mL"}]}, {"molecule": "C=C1CCC[C@]2(C)[C@H]3COC(=O)[C@H]3CC[C@@]12O", "values": [{"measurement": "IC50", "setting": "Influenza A virus [8]", "result": 2.96, "unit": "µg/mL"}]}, {"molecule": "CCCCCCCC/C=C\\CCCCCCCC(=O)N[C@H](C(=O)N1C[C@H](C)C[C@H]1C(=O)N[C@H](C(=O)N[C@@H](CCOC(C)=O)C(=O)N[C@@H](C)C=O)C(C)C)[C@@H](C)O", "note": "(Oleoyl-T[Pro(4R-Me)]V[hSer](Ac)A-aldehyde)", "values": [{"measurement": "pEC50", "setting": "Zika virus [1]", "result": 5.30}, {"measurement": "pIC50", "setting": "Zika virus [9]", "result": 6.82}]}, {"molecule": "COc1cc(O)c2c(c1)C(=O)C1=C(C[C@@H](O)[C@@](C)(O)C1)C2=O", "note": "[ALTERSOLANOL B]", "values": [{"measurement": "IC50", "setting": "Influenza A virus [4]", "result": 7.82, "unit": "µg/mL"}]}, {"molecule": "C[C@H]1CCC/C=C/[C@@H]2C[C@H](O)C[C@H]2[C@H](O)/C=C/C(=O)O1", "note": "[BREFELDIN A]", "values": [{"measurement": "pIC50", "setting": "dengue virus type 2 [10]", "result": 7.26}]}, {"molecule": "CC[C@H](C)C(=O)[C@H]1C(=O)O[C@@]2(C)C(=O)C=C3C=C(C)OC=C3[C@H]12", "note": "[CHERMESINONE B]", "values": [{"measurement": "IC50", "setting": "Influenza A virus [4]", "result": 0.8, "unit": "µg/mL"}]}]}
